The subject of test [1] is healthy brown Norway rats. In words: Learning, memory and mushroom spine synapses in healthy rats, water maze training. The class given is in vivo. Details: learning acquisition: dose or concentration left out as unconfirmed. From the text: Protocol: Non-disease, healthy brown Norway rats (at 4-5 months old) were used in this study. […] (Nv=naîve controls; Sw=swim controls; Mz=water maze treatment; and Mz/Br=water maze treatment plus bryostatin treatment).

The test system of test [2] is alpha-secretase. To be noted: human fibroblasts; Etcheberrigaray et al. 2004; cited from earlier work.
In test [3] the test system is Primary human neurons. In words: Synaptogenicity in primary human neurons. As to conditions: 0.27 nM. The class given is cell-based. How it is done: Protocol: Primary human neurons were treated with either DCPLA-methyl ester (100 nM) or bryostatin-1 (0.27 nM).
The test system of test [4] is HuC and HuD proteins. Put plainly: Dendritic spines, presynaptic vesicles and HuC/HuD nuclear export in healthy rats after water maze training. The class given is in vivo. As to conditions: 10 μg/kg body weight intraperitoneal, 3 doses every other day; two days after 6-days of training. How it is done: Protocol: Non-diseased, healthy brown Norway rats (at 4-5 months old) were used in this study. Two days after 6-days of training, increases in dendritic spines (a, b) and presynaptic vesicle concentration (a, d) within unchanged axonal bouton density (a, c) were correlated with an increase in the nuclear export of HuC and HuD proteins into the dendritic shaft as compared with naive and swim controls (a, e). Those changes were enhanced with bryostatin treatment (10 μg/kg body weight, intraperitoneal injection, 3 doses every other day). Nv=naîve controls; Sw=swim controls; Mz=water maze treatment; and Mz/Br=water maze treatment plus bryostatin treatment).

The test system of test [5] is neurons in the CA1 hippocampal area. Put plainly: Apoptotic cell death (TUNEL) in hippocampal CA1 area after ischemic (2-VO)/hypoxic event. The class given is in vivo. To be noted: 15 μg/m^2 tail vein, 2 doses/week for 10 doses, starting 24 hours after ischemic/hypoxic event; staining 9 day after last dose. How it is done: Protocol: Bryostatin-1 (15 μg/m^2) was administered through a tail vein (2 doses/week, for 10 doses), starting 24 hours after the end of the ischemic (2-VO)/hypoxic event. Staining for apoptotic cell death in the hippocampal CA1 area was performed 9 day after the last bryostatin-1 dose. […] (C) Quantification of TUNEL staining in stratum radiatum (n=3 animals; n=30 confocal images). Con=control; Bry=bryostatin-1; Isch=cerebral ischemia; ***, P<0.001.

Test [6] has as its system GSK-3β. Put plainly: Phosphorylation of GSK-3β (Ser9) in hippocampus (Western Blot). It counts as in vivo, mice. As to conditions: 20 μg/m2 i.v., 2 doses/wk for 13 wk. (Immunoblotting shows a protein as a band on a membrane.)
The test system of test [7] is sAPP-α. Put plainly: sAPP-α secretion in an Alzheimer's disease cell line. The class given is cell-based, human. To be noted: AD cell line. How it is done: Protocol: An Alzheimer's disease cell line was incubated with bryostatin (0.1 nM), Benzolactam (0.1 nM or 1.0 μM), DMSO, pre-treated with staurosporin (100 nM) plus bryostatin (0.1 nM) for three hours. […] The graph units are relative to the vehicle, DMSO, alone (1).

For test [8], the system named is Tg2576 mice. Put plainly: Dendritic spines and synapses in hippocampal CA1 area of Tg2576 mice. It counts as in vivo.
Test [9] deals with cerebral ischemia rats. In words: Spatial learning, memory and visible platform test after cerebral ischemia. The class given is in vivo. To be noted: 15 μg/m2 tail vein. How it is done: Protocol: Bryostatin-1 (15 μg/m2) was administered through a tail vein (2 doses/week, for 10 doses), starting 24 hours after the end of the ischemic (2-VO)/hypoxic event. The ability of the rats in spatial learning (2 trials/day for 4 days) and memory (a probe test of 1 min, 24 hours after the last trial) was evaluated, with the first training started 9 days after the last dose of bryostatin-1. […] (Bry—bryostatin-1; Isch—cerebral ischemia; NS—not significant) (*, P<0.05).

For test [10], the system named is monomeric Aβ(1-42). In words: Aβ peptide degradation by SH+hNEP cells. The class given is cell-based, human. To be noted: 1 nM, 2.5 μg monomeric Aβ(1-42), 4 hours. How it is done: Protocol: Intact SH+hNEP cells were incubated with 2.5 μg of monomeric Aβ(1-42) for 4 hours in the absence or presence of bryostatin (Bryo, 1 nM). Some cells were cotreated with phosphoramidon (PA, 10 μM, a specific neprilysin inhibitor), Ro 32-0432 (Ro, 2 μM, a PKC inhibitor), or PA+Ro in the presence of bryostatin (1 nM) for 4 hours. Aβ peptide was then precipitated from the reactions by 20% trichloroacetic acid and immunoblotted with use of Aβ peptide 1-16 antibody (6E10). Arrow indicates the size of monomeric Aβ peptide (FIG. 18), which is around 4 kDa. Densitometry measurements of developed protein bands on Western blots were made and assigned as relative expression change (Mean+SEM of three independent experiments, **P<0.01, Bryo compared with untreated; #P<0.01, PA, Ro, or PA+Ro compared with Bryo.).

The test system of test [11] is cerebral ischemia rats. Put plainly: Retention of spatial learning and memory after cerebral ischemia (training before ischemia). The class given is in vivo. As to conditions: 15 μg/m^2 tail vein, 2 doses/week for 10 doses; second probe test 2 weeks after last dose (FIG. 22). How it is done:
Protocol: An initial evaluation of the test rats was undertaken to observe their spatial learning (2 trials/day for 6 days) and memory (a probe test of 1 min, 24 hours after the last trial). Cerebral ischemia was induced 1 day after the probe test, followed by bryostatin-1 (15 μg/m^2) administration through a tail vein (2 doses/week, for 10 doses), starting 24 hours after the end of the ischemic (2-VO)/hypoxic event. A second probe test was performed 2 weeks after the last bryostatin-1 dose. Results are shown in A for the spatial water maze performance of the rats over training trials (2 trials/day for 6 days) before the ischemia/treatment (means±SEM.; trials: F11,383=40.483, P<0.001; groups: F3,383=0.315, P>0.05). Results of the probe test after the training trials before the ischemia and/or treatment are shown in B-E (Quadrant 4 was the target quadrant). Results are shown for the target quadrant ratios before (pre-Isch) and after (post-Isch) the ischemia and/or treatment in F. Results are shown in G for the latency of the first crossing the target location before (pre-Isch) and after (post-Isch) the ischemia and/or treatment. There were eight rats/group (Bry—bryostatin-1; Isch.—cerebral ischemia) (*, P<0.05. NS: P>0.05).

Where [12] appears, read: 10 mg/kg body weight intraperitoneal, 3 doses every other days, during water maze training.
Setting [13] is: 30 μg/kg intraperitoneal twice a week from 2 months old, analysis at five months.

The values that follow come from patent US20160025704A1, “METHODS FOR IDENTIFYING NEUROPROTECTIVE PKC ACTIVATORS” (priority 2013, published 2016).

For `CCC/C=C/C=C/C(=O)O[C@H]1/C(=C/C(=O)OC)C[C@H]2C[C@H]([C@@H](C)O)OC(=O)C[C@H](O)C[C@@H]3C[C@H](OC(C)=O)C(C)(C)[C@](O)(C[C@@H]4C/C(=C/C(=O)OC)C[C@H](/C=C/C(C)(C)[C@]1(O)O2)O4)O3` [Bryostatin, bryostatin-1], in test [1] (setting [12]), the memory retention result is recorded as “promoted” and the “memory-specific induction of mushroom spine synapses” value is listed as “promotes memory-specific induction of mushroom spine synapses”. The “non-mushroom spine density in naïve rats” value in test [1] (Bryostatin alone, no water maze) is “increased non-mushroom spine density”. Besides, the learning acquisition entry in [1] (intraperitoneal, 3 doses every other days, during water maze training) is “promoted learning acquisition”. In test [2], the “activation of alpha-secretase (sAPP generation)” value is given as “activate the alpha-secretase”. Also, the “co-localized staining of PSD-95 and synaptophysin in puncta (number of synapses)” value in test [3] (30 days) is “an increase in co-localized staining of PSD-95 and synaptophysin in puncta”. For the same compound, the “survival, neuritic branching and connections” value in test [3] (40 days) was “improved survival with increased neuritic branching and connections”. Moreover, in test [4], the “training-induced increases in dendritic spines, presynaptic vesicle concentration and nuclear export of HuC and HuD proteins” value was “enhanced”. Moreover, the “apoptotic cell death in neurons in the CA1 hippocampal area” value in test [5] is given as “prevents apoptotic cell death”. Besides, in [6], the “phosphorylation of GSK-3β (Ser9) in the hippocampus of fragile X mice” value was “increases phosphorylation of GSK-3β”. In test [7] (0.01 nM, time course), the “sAPP-α secretion at lower concentration” value is listed as “much slower but had about the same effect on secretion after 120 min of incubation”. For the same compound, the “amount of sAPP-α in the medium” value in test [7] (0.1 nM, 3 h incubation, relative to DMSO) was “dramatically enhanced the amount of sAPP-α in the medium”. The “incubation time at which secretion is near maximal” value in [7] (0.1 nM, time course) is 160 min. In test [7] (both at 0.1 nM), the “potency in sAPP-α secretion compared with BL” value is given as “more potent than another PKC activator, BL”. Further, in test [8] (setting [13]), the “mushroom spine-shape dendritic spines” value is on record as “prevented decreases in mushroom spine-shape dendritic spines” and the “synapses (electron microscopy)” value is “prevented decreases”. Also, in test [8] (Tg2576 mice at 5 months old (FIG. 19)), the “loss of postsynaptic dendritic spines and synapses in the hippocampal CA1 area” value was “protects against the loss of postsynaptic dendritic spines and synapses”. In test [9] (2 doses/week for 10 doses (FIG. 23)), the “sensorimotor ability (visible platform test)” value is given as “but not sensorimotor ability”. For the same compound, the “learning experience and memory after cerebral ischemia” value in test [9] (2 doses/week for 10 doses, training started 9 days after last dose (FIG. 23)) was “rescues learning experience and memory”. Also, the Aβ peptide degradation result in [10] was “induces Aβ peptide degradation through neprilysin activation”. For the same compound, the “learning experience and memory after cerebral ischemia” value in test [11] is “rescues learning experience and memory”.
